Laboratory results as given in BindingDB's records for doi:10.1021/jm950922q (University of North Carolina at Chapel Hill, 1996).

Molecular target: HIV-RT (HIV reverse transcriptase)
Test: Inhibitory activity against HIV-RT

Structure (SMILES)	IC50
C=C(C)[C@@H]1CC[C@]2(C(=O)O)CC[C@]3(C)[C@H](CC[C@@H]4[C@@]5(C)CC[C@H](OC(=O)C(C)(C)CC(=O)O)C(C)(C)[C@@H]5CC[C@]43C)[C@@H]12 [(1R,3aS,5aR,5bR,7aR,9S,11aR,11bR,13aR,13bR)-9-(3-carboxy-2,2-dimethylpropanoyloxy)-5a,5b,8,8,11a-pentamethyl-1-(prop-1-en-2-yl)icosahydro-1H-cyclopenta[a]chrysene-3a-carboxylic acid]	> 171 µM
C=C(C)[C@@H]1CC[C@]2(C(=O)O)CC[C@]3(C)[C@H](CC[C@@H]4[C@@]5(C)CC[C@H](O)C(C)(C)[C@@H]5CC[C@]43C)[C@@H]12	> 219 µM
CC(C)[C@@H]1CC[C@]2(C(=O)O)CC[C@]3(C)[C@H](CC[C@@H]4[C@@]5(C)CC[C@H](O)C(C)(C)[C@@H]5CC[C@]43C)[C@@H]12 [Dihydrobetulinic acid]	> 218 µM
CC(C)[C@@H]1CC[C@]2(C(=O)O)CC[C@]3(C)[C@H](CC[C@@H]4[C@@]5(C)CC[C@H](OC(=O)CC(C)(C)C(=O)O)C(C)(C)[C@@H]5CC[C@]43C)[C@@H]12 [2,2-Dimethyl-succinic acid 4-((1S,3aS,5aR,5bR,7aR,9S,11aR,11bR,13aR,13bR)-3a-carboxy-1-isopropyl-5a,5b,8,8,11a-pentamethyl-icosahydro-cyclopenta[a]chrysen-9-yl) ester]	> 171 µM
CC(C)[C@@H]1CC[C@]2(C(=O)O)CC[C@]3(C)[C@H](CC[C@@H]4[C@@]5(C)CC[C@H](OC(=O)COCC(=O)O)C(C)(C)[C@@H]5CC[C@]43C)[C@@H]12 [(1S,3aS,5aR,5bR,7aR,9S,11aR,11bR,13aR,13bR)-9-(2-Carboxymethoxy-acetoxy)-1-isopropyl-5a,5b,8,8,11a-pentamethyl-icosahydro-cyclopenta[a]chrysene-3a-carboxylic acid]	> 174 µM
C=C(C)[C@@H]1CC[C@]2(C(=O)O)CC[C@]3(C)[C@H](CC[C@@H]4[C@@]5(C)CC[C@H](OC(=O)COCC(=O)O)C(C)(C)[C@@H]5CC[C@]43C)[C@@H]12 [(1R,3aS,5aR,5bR,7aR,9S,11aR,11bR,13aR,13bR)-9-(2-Carboxymethoxy-acetoxy)-1-isopropenyl-5a,5b,8,8,11a-pentamethyl-icosahydro-cyclopenta[a]chrysene-3a-carboxylic acid]	> 175 µM
C=C(C)[C@@H]1CC[C@]2(C(=O)O)CC[C@]3(C)[C@H](CC[C@@H]4[C@@]5(C)CC[C@H](OC(=O)CC(C)(C)CC(=O)O)C(C)(C)[C@@H]5CC[C@]43C)[C@@H]12 [3,3-Dimethyl-pentanedioic acid mono-((1R,3aS,5aR,5bR,7aR,9S,11aR,11bR,13aR,13bR)-3a-carboxy-1-isopropenyl-5a,5b,8,8,11a-pentamethyl-icosahydro-cyclopenta[a]chrysen-9-yl) ester]	> 167 µM
CC(C)[C@@H]1CC[C@]2(C(=O)O)CC[C@]3(C)[C@H](CC[C@@H]4[C@@]5(C)CC[C@H](OC(=O)CC(C)(C)CC(=O)O)C(C)(C)[C@@H]5CC[C@]43C)[C@@H]12 [3,3-Dimethyl-pentanedioic acid mono-((1S,3aS,5aR,5bR,7aR,9S,11aR,11bR,13aR,13bR)-3a-carboxy-1-isopropyl-5a,5b,8,8,11a-pentamethyl-icosahydro-cyclopenta[a]chrysen-9-yl) ester]	> 167 µM
